Measurements taken from patent US20220402901A1 (Bial - R&D Investments, S.A., priority 2019, published 2022).
In brackets after ≈: the same amount, converted by molar mass.

Columns and labels:
[1] = Compound solubility in water; type: physicochemical; details: read-out: Solubility in H2O
[2] = target: T1, Human acid ceramidase (hACR) (Homo sapiens, UniProt Q13510); test: Acid ceramidase biochemical fluorescent assay (cell lysates overexpressing acid ceramidase, substrate Rbm14-12); details: 10 μg lysate protein, 1 hr preincubation at RT, pH 4.5, Rbm14-12 6.3 μM
T1 construct: expressed in transfected cells; lysates of cells overexpressing acid ceramidase
T1 sequence (Q13510 22-395): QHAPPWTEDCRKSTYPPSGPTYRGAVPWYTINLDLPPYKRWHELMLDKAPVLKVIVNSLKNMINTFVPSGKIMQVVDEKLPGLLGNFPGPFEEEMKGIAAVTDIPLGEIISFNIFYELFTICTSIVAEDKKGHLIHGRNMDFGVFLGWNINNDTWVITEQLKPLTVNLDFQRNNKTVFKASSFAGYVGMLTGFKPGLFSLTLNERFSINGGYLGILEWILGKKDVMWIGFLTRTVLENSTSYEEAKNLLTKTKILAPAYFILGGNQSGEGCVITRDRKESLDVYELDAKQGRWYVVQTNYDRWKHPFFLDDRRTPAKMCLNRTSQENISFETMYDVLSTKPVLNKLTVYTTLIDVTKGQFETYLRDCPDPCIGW
Description: The ability of exemplary compounds to inhibit acid ceramidase was measured.
Cell lysates overexpressing acid ceramidase were used as the enzyme source for compound potency determination in a biochemical fluorescent assay. Briefly, compounds were preincubated with 10 μg protein of cell lysates in a dose-response manner for 1 hr at RT in the assay buffer containing 25 mM NaAC and 100 mM NaCl, pH 4.5. The reaction was initiated by the addition of substrate Rbm14-12 at a final concentration of 6.3 μM. The reaction was run at RT for 1 hr before it was stopped by the addition of the stopping buffer containing 20% methanol (v/v), 1 mg/ml NaIO4, 0.1 M glycine, pH 10.6. The samples were incubated with the stopping buffer at RT for 1 hr to allow the fluorescent product to be formed. Finally the plate was read with SpectraMax i3 plate reader (Molecular Devices) at ex360 nm and em446 nm. Data were collected and used to determine the IC50 values of compounds by curve fitting to the four-parameter inhibition equation.
The symbol “A” indicates inhibition of less than 0.2 μM; the symbol “B” indicates inhibition in the range of 0.2 μM up to 1 μM; and the symbol “C” indicates inhibition of greater than 1 μM.

SMILES	solubility [1]	IC50 [2]
O=C(NCCCCc1ccccc1)N1CCC(c2ccc3[nH]c(=O)oc3c2)CC1 [Example 1, 4-(2-Oxo-3H-1,3-benzoxazol-6-yl)-N-(4-phenylbutyl)piperidine-1-carboxamide]	2.4 µM (≈ 0.944 µg/mL)	200 to 1000 nM
CC(C)CNC(=O)N1CCC(c2ccc3c(c2)oc(=O)n3C)CC1 [Example 3, N-iso-Butyl 4-(3-methyl-2-oxo-1,3-benzoxazol-6-yl)piperidine-1-carboxamide]	126 µM (≈ 41.8 µg/mL)	> 1000 nM
CN1CCC(n2c(=O)oc3cc(C4CCN(C(=O)NCCCCc5ccccc5)CC4)ccc32)CC1 [Example 6, 4-[3-(1-Methyl-4-piperidyl)-2-oxo-1,3-benzoxazol-6-yl]-N-(4-phenylbutyl)piperidine-1-carboxamide]	10 µM (≈ 4.91 µg/mL)	> 1000 nM
Cn1c(=O)oc2c(C3CCN(C(=O)NCCCCc4ccccc4)CC3)cccc21 [Example 7, 4-(3-Methyl-2-oxo-1,3-benzoxazol-7-yl)-N-(4-phenylbutyl)piperidine-1-carboxamide]	13 µM (≈ 5.3 µg/mL)	> 1000 nM
CC(C)CNC(=O)N1CCC(c2cccc3c2oc(=O)n3C)CC1 [Example 8, N-iso-Butyl-4-(3-methyl-2-oxo-1,3-benzoxazol-7-yl)piperidine-1-carboxamide]	143 µM (≈ 47.4 µg/mL)	> 1000 nM
Cn1c(=O)oc2ccc(C3CCN(C(=O)NCCCCc4ccccc4)CC3)cc21 [Example 9, 4-(3-Methyl-2-oxo-1,3-benzoxazol-5-yl)-N-(4-phenylbutyl)piperidine-1-carboxamide]	15 µM (≈ 6.11 µg/mL)	> 1000 nM
Cn1c(=O)oc2cccc(C3CCN(C(=O)NCCCCc4ccccc4)CC3)c21 [Example 10, 4-(3-Methyl-2-oxo-1,3-benzoxazol-4-yl)-N-(4-phenylbutyl)piperidine-1-carboxamide]	9 µM (≈ 3.67 µg/mL)	> 1000 nM
Cn1c(=O)oc2cc(C3CCCN(C(=O)NCCCCc4ccccc4)C3)ccc21 (centres unmarked) [Example 12, 3-(3-Methyl-2-oxo-1,3-benzoxazol-6-yl)-N-(4-phenylbutyl)piperidine-1-carboxamide]	8 µM (≈ 3.26 µg/mL)	> 1000 nM
C[C@H]1CC(c2ccc3c(c2)oc(=O)n3C)CCN1C(=O)NCCc1ccccc1 (stereo partly drawn) [Example 21, (2S)-Methyl-4-(3-methyl-2-oxo-1,3-benzoxazol-6-yl)-N-(2-phenylethyl)piperidine-carboxamide]	56 µM (≈ 22 µg/mL)	200 to 1000 nM
CC(C)CNC(=O)N1CCC(c2ccc3c(c2)oc(=O)n3C)C[C@@H]1C (stereo partly drawn) [Example 22, N-iso-Butyl (2S)-methyl-4-(3-methyl-2-oxo-1,3-benzoxazol-6-yl)piperidine-1-carboxamide]	235 µM (≈ 81.2 µg/mL)	200 to 1000 nM
Cn1c(=O)oc2cc(C3CCN(C(=O)NCCCCc4ccccc4)C(C)(C)C3)ccc21 (centres unmarked) [Example 24, 2,2-Dimethyl-4-(3-methyl-2-oxo-1,3-benzoxazol-6-yl)-N-(4-phenylbutyl)piperidine-1-carboxamide]	1.3 µM (≈ 0.566 µg/mL)	< 200 nM
Cn1c(=O)oc2cc(C3CCN(C(=O)NCCc4ccccc4)C(C)(C)C3)ccc21 (centres unmarked) [Example 25, 2,2-Dimethyl-4-(3-methyl-2-oxo-1,3-benzoxazol-6-yl)-N-(2-phenylethyl)piperidine-1-carboxamide]	26 µM (≈ 10.6 µg/mL)	< 200 nM
Cn1c(=O)oc2cc(C3CCN(C(=O)NCCCc4ccccc4)C(C)(C)C3)ccc21 (centres unmarked) [Example 26, 2,2-Dimethyl-4-(3-methyl-2-oxo-1,3-benzoxazol-6-yl)-N-(3-phenylpropyl)piperidine-1-carboxamide]	5.8 µM (≈ 2.44 µg/mL)	< 200 nM
Cn1c(=O)oc2cc(C3CCN(C(=O)NCCOCc4ccccc4)C(C)(C)C3)ccc21 (centres unmarked) [Example 27, N-(2-Benzyloxyethyl)-2,2-dimethyl-4-(3-methyl-2-oxo-1,3-benzoxazol-6-yl)piperidine-1-carboxamide]	9.4 µM (≈ 4.11 µg/mL)	< 200 nM
CCCCCNC(=O)N1CCC(c2ccc3c(c2)oc(=O)n3C)CC1(C)C (centres unmarked) [Example 28, 2,2-Dimethyl-4-(3-methyl-2-oxo-1,3-benzoxazol-6-yl)-N-pentylpiperidine-1-carboxamide]	1.7 µM (≈ 0.635 µg/mL)	< 200 nM
Cn1c(=O)oc2cc(C3CCN(C(=O)NCCC4CC4)C(C)(C)C3)ccc21 (centres unmarked) [Example 29, N-(2-Cyclopropylethyl)-2,2-dimethyl-4-(3-methyl-2-oxo-1,3-benzoxazol-6-yl)piperidine-1-carboxamide]	250 µM (≈ 92.9 µg/mL)	200 to 1000 nM

SMILES	solubility [1]	IC50 [2]
Cn1c(=O)oc2cc(C3CCN(C(=O)NCCCCC4CC4)C(C)(C)C3)ccc21 (centres unmarked) [Example 31, N-(4-Cyclopropylbutyl)-2,2-dimethyl-4-(3-methyl-2-oxo-1,3-benzoxazol-6-yl)piperidine-1-carboxamide]	0.3 µM (≈ 0.12 µg/mL)	< 200 nM
Cn1c(=O)oc2cc(C3CC4CCC(C3)N4C(=O)NCCCCc3ccccc3)ccc21 (centres unmarked) [Example 33, 3-(3-Methyl-2-oxo-1,3-benzoxazol-6-yl)-N-(4-phenylbutyl)-8-azabicyclo[3.2.1]octane-8-carboxamide]	3.2 µM (≈ 1.39 µg/mL)	< 200 nM
Cn1c(=O)oc2cc(C3CCN(C(=O)NCCCCc4ccccc4)C(=O)C3)ccc21 (centres unmarked) [Example 35, 4-(3-Methyl-2-oxo-1,3-benzoxazol-6-yl)-2-oxo-N-(4-phenylbutyl)piperidine-1-carboxamide]	< 1 µM	> 1000 nM
Cn1c(=O)oc2cc(C3CCCCN3C(=O)NCCCCc3ccccc3)ccc21 (centres unmarked) [Example 37, 2-(3-Methyl-2-oxo-1,3-benzoxazol-6-yl)-N-(4-phenylbutyl)piperidine-1-carboxamide]	30 µM (≈ 12.2 µg/mL)	> 1000 nM
Cn1c(=O)oc2cc(C3CNCCN3C(=O)NCCCCc3ccccc3)ccc21 (centres unmarked) [Example 39, 2-(3-Methyl-2-oxo-1,3-benzoxazol-6-yl)-N-(4-phenylbutyl)piperazine-1-carboxamide]	241 µM (≈ 98.4 µg/mL)	> 1000 nM
CN1CCN(C(=O)NCCCCc2ccccc2)C(c2ccc3c(c2)oc(=O)n3C)C1 (centres unmarked) [Example 40, 4-Methyl-2-(3-methyl-2-oxo-1,3-benzoxazol-6-yl)-N-(4-phenylbutyl)piperazine-1-carboxamide]	224 µM (≈ 94.6 µg/mL)	> 1000 nM
CN1CCN(C(=O)NCCCCc2ccccc2)CC1c1ccc2c(c1)oc(=O)n2C (centres unmarked) [Example 41, 4-Methyl-3-(3-methyl-2-oxo-1,3-benzoxazol-6-yl)-N-(4-phenylbutyl)piperazine-1-carboxamide]	135 µM (≈ 57 µg/mL)	> 1000 nM
Cn1c(=O)oc2cc(C3COCC(C)(C)N3C(=O)NCCCCc3ccccc3)ccc21 (centres unmarked) [Example 42, 3,3-Dimethyl-5-(3-methyl-2-oxo-1,3-benzoxazol-6-yl)-N-(4-phenylbutyl) morpholine-4-carboxamide]	14.8 µM (≈ 6.48 µg/mL)	< 200 nM
CCCCCNC(=O)N1C(c2ccc3c(c2)oc(=O)n3C)COCC1(C)C (centres unmarked) [Example 43]	69.1 µM (≈ 25.9 µg/mL)	< 200 nM
Cn1c(=O)oc2cc(N3CCN(C(=O)NCCCCc4ccccc4)CC3)ccc21 [Example 46, 4-(3-Methyl-2-oxo-1,3-benzoxazol-6-yl)-N-(4-phenylbutyl)piperazine-1-carboxamide]	6 µM (≈ 2.45 µg/mL)	200 to 1000 nM
CN(C)CCn1c(=O)oc2cc(N3CCN(C(=O)NCCCCc4ccccc4)CC3)ccc21 [Example 47, 4-[3-[2-(Dimethylamino)ethyl]-2-oxo-1,3-benzoxazol-6-yl]-N-(4-phenylbutyl)piperazine-1-carboxamide]	250 µM (≈ 116 µg/mL)	> 1000 nM
C[C@@H]1CN(c2ccc3c(c2)oc(=O)n3C)CCN1C(=O)NCCCCc1ccccc1 [Example 48, (2R)-2-Methyl-4-(3-methyl-2-oxo-1,3-benzoxazol-6-yl)-N-(4-phenylbutyl)piperazine-1-carboxamide]	4.3 µM (≈ 1.82 µg/mL)	200 to 1000 nM
Cn1c(=O)oc2cc(N3CCN(C(=O)NCCCCc4ccccc4)C(C)(C)C3)ccc21 [Example 50, 2,2-Dimethyl-4-(3-methyl-2-oxo-1,3-benzoxazol-6-yl)-N-(4-phenylbutyl)piperazine-1-carboxamide]	0.3 µM (≈ 0.131 µg/mL)	< 200 nM
Cn1c(=O)oc2cc(N3CCN(C(=O)NCCc4ccccc4)C(C)(C)C3)ccc21 [Example 51, 2,2-Dimethyl-4-(3-Methyl-2-oxo-1,3-benzoxazol-6-yl)-N-(2-phenylethyl)piperazine-1-carboxamide]	0.9 µM (≈ 0.368 µg/mL)	200 to 1000 nM
Cn1c(=O)oc2cc(N3CCN(C(=O)NCCCCC4CC4)C(C)(C)C3)ccc21 [Example 52, N-(4-Cyclopropylbutyl)-2,2-dimethyl-4-(3-methyl-2-oxo-1,3-benzoxazol-6-yl)piperazine-1-carboxamide]	0.9 µM (≈ 0.36 µg/mL)	< 200 nM
